Series [1] can be described thus: stability of BHT in the preparation on storage, liquid chromatography. Format: physicochemical. The procedure:
Finally, the stability of BHT in a preparation according to the invention was tested: • a container with 40 kg of preparation, covered with a simple lid without any special packaging such as the addition of an inert gas (e.g. nitrogen), was placed in storage for three yeas.

The next series deals with lipid-coated viruses. To be noted: against lipid-coated viruses; cited from earlier work.
Series [2] relates to transformed human keratinocytes (cell line TR 146). Description: acute ocular tolerance on reconstituted corneas ([…] model), MTT cell viability test. In kind it is cell-based. On the set-up: key to Colour of the two cultures: deep blue/purple colour when they are viable; white/yellow in colour if cell death occurs. The procedure:
To start with, the product was evaluated in terms of its capacity to trigger cytopathic effects on corneas reconstituted by means of in vitro transformed keratinocytes cultures.
When they are cultured at the air-liquid interface in a specific medium, transformed human keratinocytes (cell line TR 146) form epithelial tissue without a corneal layer, similar to the human eye.
A sample of the product to be studied (30 μl) was deposited on each of the six equivalent reconstituted corneal cultures and spread out using a thin brush.
Two cultures were then incubated at 37° C., 5% CO2 for 10 minutes, 1 hour, 3 hours and 24 hours.
Negative controls substances (buffered phosphate saline solution A) and positive controls substances (0.4% SDS for “sodium dodecyl sulfate” in solution A) were prepared under sterile conditions and deposited simultaneously on the other two cultures. These cultures were incubated for one hand 24 hours. […]
Cell viability was measured qualitatively after staining. […]
After incubation for 30 minutes at room temperature, each culture's colour is observed and recorded: • negative control cultures should be a deep blue/purple colour, evidence of the viability of cells in the basal layer after 24 hours in contact, • positive control cultures should be white, evidence of cell death from the first hour of contact.
(Tetrazolium assays rely on reduction of a dye to a coloured formazan, in cell work by metabolically active cells.)

Molecules are shown by their SMILES.

The text below walks through data of US20050175644A1, “Preparation for oxidation-sensitive compounds and method for making same” (priority 2002, published 2005).

As to `Cc1cc(C(C)(C)C)c(O)c(C(C)(C)C)c1` [BHT, 3,5-di-tert-butyl-4-hydroxytoluene], the “BHT concentrations by liquid chromatography” value in series [1] (40 kg of preparation in a container with simple lid, no inert gas, stored three years) was “remained the same”. The “stability of BHT in a preparation according to the invention” value in series [1] (storage for three years) is given as “excellent”. For the same molecule, the antiviral properties entry in the series on lipid-coated viruses is recorded as “antiviral properties”.

In the case of `CCCCCCCCCCCCOS(=O)(=O)[O-].[Na+]` [Positive control, sodium dodecyl sulfate], the “Colour of the two cultures” value in series [2] (1 hour contact, MTT) is “white”. For the same molecule, the Toxicity result in series [2] (interpretation of the colours at 10 min, 1, 3 and 24 hours) was “VI (very irritant (VI): white at 10 minutes, 1 hour, 3 hours and 24 hours)”.

On to `CC(C)(C)c1cc(C(=O)OCCOCCOCCOCCOCCOCCOCCOCCO)cc(C(C)(C)C)c1O` [AVF1, octaoxyethyleneglycol 3,5-di-tert-butyl-4-hydroxybenzoate], for which, in the series with lipid-coated viruses, the antiviral properties result is “antiviral properties”.

As to `CC(C)(C)c1cc(C(=O)O)cc(C(C)(C)C)c1O` [BG4, 3,5-di-tert-butyl-4-hydroxybenzoic acid], the antiviral properties entry with lipid-coated viruses is reported as “antiviral properties”.
